Measurements as given in US12643910B2, “Substituted pyrazolo[3,4-b]pyridines as ectonucleotide pyrophosphatase/phosphodiesterase 1 (ENPP1) modulators” (SANFORD BURNHAM PREBYS MEDICAL DISCOVERY INSTITUTE, priority 2019, dated 2026).

Assays:
ENPP3 = molecular target: T1, ENPP3 (Homo sapiens, UniProt O14638); assay: ENPP3 Km ATP assay; type: biochemical; conditions: ATP at Km
T1 sequence (O14638 1-875): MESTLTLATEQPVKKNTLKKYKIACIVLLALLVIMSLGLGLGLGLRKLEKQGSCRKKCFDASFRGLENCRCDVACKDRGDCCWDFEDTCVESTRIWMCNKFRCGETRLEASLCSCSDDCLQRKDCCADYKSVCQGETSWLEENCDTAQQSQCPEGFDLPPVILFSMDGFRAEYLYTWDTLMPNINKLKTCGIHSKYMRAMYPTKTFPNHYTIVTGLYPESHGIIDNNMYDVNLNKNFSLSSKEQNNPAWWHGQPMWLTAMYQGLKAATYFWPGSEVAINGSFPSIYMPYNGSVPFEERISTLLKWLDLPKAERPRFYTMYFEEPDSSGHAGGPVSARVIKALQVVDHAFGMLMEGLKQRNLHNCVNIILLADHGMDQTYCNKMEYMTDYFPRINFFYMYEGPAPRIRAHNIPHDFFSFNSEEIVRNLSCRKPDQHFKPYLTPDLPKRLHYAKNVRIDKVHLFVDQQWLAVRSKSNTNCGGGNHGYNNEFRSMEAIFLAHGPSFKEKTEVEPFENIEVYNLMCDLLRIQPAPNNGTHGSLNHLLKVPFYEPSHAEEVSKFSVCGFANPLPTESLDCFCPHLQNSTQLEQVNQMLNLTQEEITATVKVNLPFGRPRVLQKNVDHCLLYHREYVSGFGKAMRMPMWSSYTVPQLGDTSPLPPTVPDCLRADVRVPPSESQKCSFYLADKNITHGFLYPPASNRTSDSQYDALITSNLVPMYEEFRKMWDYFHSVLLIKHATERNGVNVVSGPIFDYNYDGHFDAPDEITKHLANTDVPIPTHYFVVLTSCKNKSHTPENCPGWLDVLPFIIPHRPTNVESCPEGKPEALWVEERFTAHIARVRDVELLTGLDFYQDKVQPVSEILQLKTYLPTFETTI

human ENPP1 = molecular target: T2, human ENPP1 (Homo sapiens, UniProt P22413); assay: ENPP1 assay with ATP substrate (Transcreener AMP2/GMP2 TR-FRET); type: biochemical; conditions: 1 hour at room temperature
T2 construct: made in house
T2 sequence (P22413 1-925): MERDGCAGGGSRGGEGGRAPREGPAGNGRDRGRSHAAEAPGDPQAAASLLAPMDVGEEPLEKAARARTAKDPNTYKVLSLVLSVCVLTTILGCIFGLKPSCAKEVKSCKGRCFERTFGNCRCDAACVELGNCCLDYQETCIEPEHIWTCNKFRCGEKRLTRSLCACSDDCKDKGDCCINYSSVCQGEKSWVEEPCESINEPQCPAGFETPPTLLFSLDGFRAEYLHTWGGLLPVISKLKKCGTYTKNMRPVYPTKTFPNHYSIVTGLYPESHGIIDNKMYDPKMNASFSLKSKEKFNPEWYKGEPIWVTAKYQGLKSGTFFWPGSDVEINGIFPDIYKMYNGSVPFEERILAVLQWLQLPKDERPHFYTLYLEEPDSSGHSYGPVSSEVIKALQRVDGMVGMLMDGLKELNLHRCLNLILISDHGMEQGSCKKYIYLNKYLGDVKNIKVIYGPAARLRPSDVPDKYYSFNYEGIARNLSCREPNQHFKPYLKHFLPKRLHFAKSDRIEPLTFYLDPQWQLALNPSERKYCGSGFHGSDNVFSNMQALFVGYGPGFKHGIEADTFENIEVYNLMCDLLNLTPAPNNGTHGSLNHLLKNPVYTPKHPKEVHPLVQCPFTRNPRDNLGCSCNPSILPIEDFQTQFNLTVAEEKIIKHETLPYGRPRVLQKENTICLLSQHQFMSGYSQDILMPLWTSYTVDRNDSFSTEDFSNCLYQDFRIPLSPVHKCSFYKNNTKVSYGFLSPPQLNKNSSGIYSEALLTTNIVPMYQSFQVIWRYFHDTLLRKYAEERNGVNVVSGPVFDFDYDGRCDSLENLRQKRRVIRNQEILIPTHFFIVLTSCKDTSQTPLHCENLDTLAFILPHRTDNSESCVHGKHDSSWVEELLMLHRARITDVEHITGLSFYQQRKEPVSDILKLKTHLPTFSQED
Method in brief: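 5′-AMP from ATP hydrolysis (300 nM ATP stock added; enzyme added as 8.5 μM stock) detected by competitive TR-FRET. Buffer: 50 mM Tris pH 7.5, 1 mM TCEP, 2 mM MgCl2, 0.005% Tween 20, 1% DMSO. Reaction 1 h at room temperature, EDTA stop. IC50 from 2-parameter variable-slope fit.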

Structure (SMILES)	IC50 (ENPP3)	IC50 (human ENPP1)
Cn1ncc2c(NCc3ccc(S(N)(=O)=O)s3)nc(Cl)nc21 [Example 2.85, 5-((6-Chloro-1-methyl-1H-pyrazolo[3,4-d]pyrimidin-4-yl)aminomethyl)thiophene-2-sulfonamide]	0.1 to 1 µM	0.1 to 1 µM
CN(C)CCN(C)c1nc(NCc2ccc(S(N)(=O)=O)cc2)c2c(-c3ccccc3)csc2n1 [Example 1.58, 4-((2-((N-2-(Dimethylamino)ethyl)-N-methylamino)-5-phenylthieno[2,3-d]pyrimidin-4-yl)aminomethyl)benzenesulfonamide]	< 0.1 µM	< 0.1 µM
Cn1ncc2c(NCc3ccc(S(N)(=O)=O)cc3)nc(NC3CCCCC3)nc21 [Example 2.30, 4-(((6-(Cyclohexylamino)-1-methyl-1H-pyrazolo[3,4-d]pyrimidin-4-yl)amino)methyl)-benzenesulfonamide]	1 to 20 µM	1 to 20 µM
Cn1ncc2c(NCc3ccc(S(N)(=O)=O)cc3)nc(Nc3ccccc3)nc21 [Example 2.50, 4-(((1-Methyl-6-(phenylamino)-1H-pyrazolo[3,4-d]pyrimidin-4-yl)amino)methyl)-benzenesulfonamide]	0.1 to 1 µM	< 0.1 µM
c1ccc(-c2csc3nc(-c4ccccn4)nc(NCc4cccs4)c23)cc1 [Example 1.33, (5-Phenyl-2-pyridin-2-yl-thieno[2,3-d]pyrimidin-4-yl)-thiophen-2-ylmethyl-amine]	1 to 20 µM	0.1 to 1 µM
Cc1csc2c(N3CCC(NC(=O)/C=C/c4ccncc4Cl)CC3)ncnc12 [Example 3.11, (E)-3-(3-Chloropyridin-4-yl)-N-(1-(7-methylthieno[3,2-d]pyrimidin-4-yl)piperidin-4-yl)acrylamide]	> 20 µM	1 to 20 µM
NS(=O)(=O)c1ccc(CNc2cc(-c3ccccn3)nc3scc(-c4ccccc4)c23)cc1 [Example 1.47, 4-(((3-Phenyl-6-(pyridin-2-yl)thieno[2,3-b]pyridin-4-yl)amino)methyl)benzenesulfonamide]	1 to 20 µM	< 0.1 µM
NS(=O)(=O)c1ccc(CNc2nc(-c3ccncc3)nc3scc(-c4ccccc4)c23)s1 [Example 1.29, 5-(((5-Phenyl-2-(pyridin-4-yl)thieno[2,3-d]pyrimidin-4-yl)amino)methyl)thiophene-2-sulfonamide]	> 20 µM	> 20 µM
CCN(C)c1nc(NCc2ccc(S(N)(=O)=O)cc2)c2cnn(C)c2n1 [Example 2.31, 4-(((6-(Ethyl(methyl)amino)-1-methyl-1H-pyrazolo[3,4-d]pyrimidin-4-yl)amino)methyl)-benzenesulfonamide]	0.1 to 1 µM	1 to 20 µM
NS(=O)(=O)c1ccc(CNc2nc(NC3CC3)nc3scc(-c4ccccc4)c23)cc1 [Example 1.26, 4-(((2-(Cyclopropylamino)-5-phenylthieno[2,3-d]pyrimidin-4-yl)amino)methyl)-benzenesulfonamide]	< 0.1 µM	< 0.1 µM
CCc1nc(N2CCC(NCCCc3ccncc3)CC2)c2scc(C)c2n1 [Example 3.54, 1-(2-Ethyl-7-methylthieno[3,2-d]pyrimidin-4-yl)-N-(3-(pyridin-4-yl)propyl)piperidin-4-amine]	> 20 µM	> 20 µM
Cc1cnccc1CCC(=O)NC1CCN(c2ncnc3c(C)csc23)CC1 [Example 3.34, 3-(3-Methylpyridin-4-yl)-N-(1-(7-methylthieno[3,2-d]pyrimidin-4-yl)piperidin-4-yl)propanamide]	> 20 µM	> 20 µM
C=Cc1nc(NCc2ccc(S(N)(=O)=O)cc2)c2cnn(C)c2n1 [Example 2.39, 4-(((1-Methyl-6-vinyl-1H-pyrazolo[3,4-d]pyrimidin-4-yl)amino)methyl)benzenesulfonamide]	< 0.1 µM	< 0.1 µM
Fc1cccc(CNc2nc(-c3ccccn3)nc3scc(-c4ccccc4)c23)c1 [Example 1.9, (3-Fluoro-benzyl)-(5-phenyl-2-pyridin-2-yl-thieno[2,3-d]pyrimidin-4-yl)-amine]	> 20 µM	> 20 µM
Cn1ncc2c(NCc3ccc(S(N)(=O)=O)nc3)ccnc21 [Example 2.72, 5-(((1-Methyl-1H-pyrazolo[3,4-b]pyridin-4-yl)amino)methyl)pyridine-2-sulfonamide]	0.1 to 1 µM	< 0.1 µM
CCSc1nc(NCc2ccc(S(N)(=O)=O)cc2)c2c(Br)nn(C)c2n1 [Example 2.110, 4-((3-Bromo-6-(ethylsulfanyl)-1-methyl-1H-pyrazolo[3,4-d]pyrimidin-4-yl)aminomethyl)-benzenesulfonamide]	< 0.1 µM	< 0.1 µM
NS(=O)(=O)c1ccc(CNc2nc(-c3ccccn3)nc3scc(-c4ccccc4)c23)cc1Cl [Example 1.18, 2-Chloro-4-(((5-phenyl-2-(pyridin-2-yl)thieno[2,3-d]pyrimidin-4-yl)amino)methyl)-benzenesulfonamide]	0.1 to 1 µM	< 0.1 µM
Cc1nc(NCc2ccc(S(N)(=O)=O)cc2)c2cnn(C)c2n1 [Example 2.26, 4-(((1,6-Dimethyl-1H-pyrazolo[3,4-d]pyrimidin-4-yl)amino)methyl)benzenesulfonamide]	0.1 to 1 µM	< 0.1 µM
COCCN(C)c1nc(NCc2ccc(S(N)(=O)=O)cc2)c2c(-c3ccccc3)csc2n1 [Example 1.55, 4-((2-(N-Methyl-N-(2-methoxyethyl)amino)-5-phenylthieno[2,3-d]pyrimidin-4-yl)aminomethyl)benzenesulfonamide]	0.1 to 1 µM	< 0.1 µM
Cc1csc2c(N3CCC(NC(=O)CCc4cccc(Cl)c4)CC3)ncnc12 [Example 3.18, 3-(3-Chlorophenyl)-N-(1-(7-methylthieno[3,2-d]pyrimidin-4-Y)piperidin-4-yl)propanamide]	> 20 µM	> 20 µM
NS(=O)(=O)c1ccc(CNc2nc(N3CCCCC3)nc3scc(-c4ccccc4)c23)cc1 [Example 1.39, 4-(((5-Phenyl-2-(piperidin-1-yl)thieno[2,3-d]pyrimidin-4-yl)amino)methyl)-benzenesulfonamide]	0.1 to 1 µM	0.1 to 1 µM
Cc1csc2c(N3CCC(NCCCc4ccc(F)cc4)CC3)ncnc12 [Example 3.5, N-(3-(4-Fluorophenyl)propyl)-1-(7-methylthieno[3,2-d]pyrimidin-4-yl)piperidin-4-amine]	> 20 µM	0.1 to 1 µM
CN(Cc1ccc(S(N)(=O)=O)cc1)c1ncnc2c1cnn2C [Example 2.136, 4-(N-methyl-N-(1-methyl-1H-pyrazolo[3,4-d]pyrimidin-4-yl)aminomethyl)-benzenesulfonamide]	0.1 to 1 µM	1 to 20 µM
CCc1nc(NCc2ccc(S(N)(=O)=O)cc2)c2cnn(C)c2n1 [Example 2.40, 4-(((6-Ethyl-1-methyl-1H-pyrazolo[3,4-d]pyrimidin-4-yl)amino)methyl)benzenesulfonamide]	0.1 to 1 µM	< 0.1 µM
Cc1nc(NCc2ccc(S(N)(=O)=O)s2)c2c(-c3ccccc3)csc2n1 [Example 1.45, 5-(((2-Methyl-5-phenylthieno[2,3-d]pyrimidin-4-yl)amino)methyl)thiophene-2-sulfonamide]	> 20 µM	> 20 µM
